# Results taken from patent publication US20200354426A1 (MEDIMMUNE LIMITED, priority 2016, published 2020).
# pEC50: −log10 of the molar value. Side chains are listed from the residue outwards. Peptide text beside a SMILES is read from it. * marks the point of attachment. Palmitoyl = CCCCCCCCCCCCCCCC(=O)*; Ahx = NCCCCCC(=O)O
# Assays:
# Assay in all cases: cAMP activity assay in assay medium (assay 1)
# Type in all cases: cell-based
# Human GIPr = molecular target: T1, Human GIPr (Homo sapiens, UniProt P48546); settings: assay medium; Table 4; read-out: hGIPR EC50
# T1 construct: expressed in transfected cells
# T1 sequence (P48546 22-466): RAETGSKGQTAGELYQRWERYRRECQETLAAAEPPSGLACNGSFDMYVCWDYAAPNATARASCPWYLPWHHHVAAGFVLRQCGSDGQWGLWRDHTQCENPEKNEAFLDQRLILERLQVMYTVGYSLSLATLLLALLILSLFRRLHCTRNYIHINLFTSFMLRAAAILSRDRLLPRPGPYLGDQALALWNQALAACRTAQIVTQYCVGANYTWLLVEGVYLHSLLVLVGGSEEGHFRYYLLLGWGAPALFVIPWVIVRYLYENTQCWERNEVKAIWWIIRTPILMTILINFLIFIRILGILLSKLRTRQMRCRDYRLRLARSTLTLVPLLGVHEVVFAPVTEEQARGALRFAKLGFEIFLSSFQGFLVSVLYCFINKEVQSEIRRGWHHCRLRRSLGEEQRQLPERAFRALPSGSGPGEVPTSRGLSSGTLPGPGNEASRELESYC
# Excerpt: (§1) Biological Activity of Peptides in Cell-Based cAMP Activity Assay (Assay 1):
# (§2) All sample dilutions were made in duplicate.
# Human GlucR = molecular target: T2, Human GlucR (Homo sapiens, UniProt P47871); settings: assay medium; Table 4; read-out: hGlucR EC50
# T2 construct: expressed in transfected cells
# T2 sequence (P47871 26-477): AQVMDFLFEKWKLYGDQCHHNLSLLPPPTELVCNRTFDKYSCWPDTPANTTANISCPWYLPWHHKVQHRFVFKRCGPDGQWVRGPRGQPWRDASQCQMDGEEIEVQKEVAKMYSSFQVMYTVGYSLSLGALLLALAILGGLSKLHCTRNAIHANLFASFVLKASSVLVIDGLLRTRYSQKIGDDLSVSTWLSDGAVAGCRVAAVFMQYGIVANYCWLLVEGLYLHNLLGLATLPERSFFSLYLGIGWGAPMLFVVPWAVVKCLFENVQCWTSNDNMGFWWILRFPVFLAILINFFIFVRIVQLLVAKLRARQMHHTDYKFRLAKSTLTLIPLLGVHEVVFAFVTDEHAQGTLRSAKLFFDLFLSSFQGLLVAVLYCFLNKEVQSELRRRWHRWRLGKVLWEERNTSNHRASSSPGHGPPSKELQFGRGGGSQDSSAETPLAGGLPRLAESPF
# Excerpt: as §1, §2
# Human GLP1R = Human GLP1R (Homo sapiens, UniProt P43220); set-up: expressed in transfected cells; settings: assay medium; Table 4; read-out: hGLP1R EC50
# Sequence of Human GLP1R (P43220 24-463): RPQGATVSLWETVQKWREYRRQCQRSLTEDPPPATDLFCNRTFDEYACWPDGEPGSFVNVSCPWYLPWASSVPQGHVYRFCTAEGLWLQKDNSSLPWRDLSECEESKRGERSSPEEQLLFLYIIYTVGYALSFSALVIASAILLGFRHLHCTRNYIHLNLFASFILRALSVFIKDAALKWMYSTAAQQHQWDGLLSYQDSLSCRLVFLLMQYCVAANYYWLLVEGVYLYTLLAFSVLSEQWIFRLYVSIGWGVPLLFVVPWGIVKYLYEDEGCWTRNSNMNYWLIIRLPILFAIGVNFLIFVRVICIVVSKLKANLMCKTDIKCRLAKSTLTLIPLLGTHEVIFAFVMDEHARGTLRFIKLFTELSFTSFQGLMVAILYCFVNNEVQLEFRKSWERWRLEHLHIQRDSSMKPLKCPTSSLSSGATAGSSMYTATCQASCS
# Excerpt: as §1, §2
SMILES,pEC50 (Human GIPr),pEC50 (Human GlucR),pEC50 (Human GLP1R)
CCCCCCCCCCCCCCCC(=O)N[C@@H](CCC(=O)NCCCC[C@H](NC(=O)[C@H](CO)NC(=O)[C@H](CC(=O)O)NC(=O)[C@H](CC(C)C)NC(=O)[C@H](Cc1ccc(O)cc1)NC(=O)[C@H](CCC(=O)O)NC(=O)[C@H](CO)NC(=O)[C@H](Cc1ccc(O)cc1)NC(=O)[C@H](CC(=O)O)NC(=O)[C@H](CO)NC(=O)[C@@H](NC(=O)[C@H](Cc1ccccc1)NC(=O)[C@@H](NC(=O)CNC(=O)[C@H](CCC(N)=O)NC(=O)CNC(=O)[C@@H](N)Cc1c[nH]cn1)[C@@H](C)O)[C@@H](C)O)C(=O)N[C@@H](CCCNC(=N)N)C(=O)N[C@@H](C)C(=O)N[C@@H](CCCNC(=N)N)C(=O)N[C@@H](CC(=O)O)C(=O)N[C@@H](Cc1ccccc1)C(=O)N[C@H](C(=O)N[C@@H](CCC(=O)O)C(=O)N[C@@H](Cc1c[nH]c2ccccc12)C(=O)N[C@@H](CC(C)C)C(=O)N[C@@H](CCC(=O)O)C(=O)N[C@@H](CCCNC(=N)N)C(=O)NCC(=O)NCC(N)=O)C(C)C)C(=O)O [g723],6.12,8.05,9.48
CCCCCCCCCCCCCCCC(=O)NCCCCCC(=O)NCCCC[C@H](NC(=O)[C@H](CO)NC(=O)[C@H](CC(=O)O)NC(=O)[C@H](CC(C)C)NC(=O)[C@H](Cc1ccc(O)cc1)NC(=O)[C@H](CCC(=O)O)NC(=O)[C@H](CO)NC(=O)[C@H](Cc1ccc(O)cc1)NC(=O)[C@H](CC(=O)O)NC(=O)[C@H](CO)NC(=O)[C@@H](NC(=O)[C@H](Cc1ccccc1)NC(=O)[C@@H](NC(=O)CNC(=O)[C@H](CCC(N)=O)NC(=O)[C@H](CO)NC(=O)[C@@H](N)Cc1c[nH]cn1)[C@@H](C)O)[C@@H](C)O)C(=O)N[C@@H](CCCNC(=N)N)C(=O)N[C@@H](C)C(=O)N[C@@H](C)C(=O)N[C@@H](CC(=O)O)C(=O)N[C@@H](Cc1ccccc1)C(=O)N[C@H](C(=O)N[C@@H](C)C(=O)N[C@@H](Cc1c[nH]c2ccccc12)C(=O)N[C@@H](CC(C)C)C(=O)N[C@@H](CCC(=O)O)C(=O)N[C@@H](CCCNC(=N)N)C(=O)NCC(=O)NCC(N)=O)C(C)C [g818] (H-HSQGTFTSDYSEYLDSK([Ahx-Palmitoyl])RAADFVAWLERGG-NH2; N-terminus assumed),7.03,11.05,10.68
CCCCCCCCCCCCCCCC(=O)NCCCC[C@H](NC(=O)CNC(=O)CNC(=O)CNC(=O)CNC(=O)CNC(=O)CNC(=O)[C@H](CCCNC(=N)N)NC(=O)[C@@H](NC(=O)[C@H](CC(C)C)NC(=O)[C@H](Cc1c[nH]c2ccccc12)NC(=O)[C@H](CCC(N)=O)NC(=O)[C@@H](NC(=O)[C@H](Cc1ccccc1)NC(=O)[C@H](CC(=O)O)NC(=O)[C@H](CCC(N)=O)NC(=O)[C@H](C)NC(=O)[C@H](CCCNC(=N)N)NC(=O)[C@H](CCCNC(=N)N)NC(=O)[C@H](CO)NC(=O)[C@H](CC(=O)O)NC(=O)[C@H](CC(C)C)NC(=O)[C@H](Cc1ccc(O)cc1)NC(=O)[C@H](CCCCN)NC(=O)[C@H](CO)NC(=O)[C@H](Cc1ccc(O)cc1)NC(=O)[C@H](CC(=O)O)NC(=O)[C@H](CO)NC(=O)[C@@H](NC(=O)[C@H](Cc1ccccc1)NC(=O)[C@@H](NC(=O)CNC(=O)[C@H](CCC(N)=O)NC(=O)[C@H](CO)NC(=O)[C@@H](N)Cc1c[nH]cn1)[C@@H](C)O)[C@@H](C)O)C(C)C)C(C)C)C(N)=O [g326],7.90,11.55,10.61
